This note sets out measurements from patent US20050271692A1, “Topical cosmetic compositions” (Cosmeceutic Solutions Pty. Ltd., priority 2002, published 2005).

Each structure is given as a SMILES string.

Data set [1] in a line: In vitro skin tape-stripping study. Type of data set: in vitro ADME, human. Conditions: o/w cream with octyl salicylate vs control cream without; 10 hours after application; 20 tape strips. On the procedure:
Experiments were performed using full thickness human skin, after removal of the subcutaneous layer. Each skin sample was treated with 40 mg of appropriate donor phase. Serial sampling of the skin was completed at different time points after donor application, by tape stripping (3M Corp Adhesive tape) with a pressure load of 240 g/cm^2. Each tape strip removed approximately 1 layer of stratum corneum, and in each case, 20 tape strips were performed. Tape strips were extracted with methanol: chloroform and analysed by high performance liquid chromatography (HPLC).

A short description of data set [2]: In vitro skin diffusion study, flow-through diffusion cells. The settings on record: o/w cream with 2% octyl salicylate vs control cream without, 24 hours, 32° C, receptor 20% EtOH in water, p<0:05. Type of data set: in vitro ADME, human. The procedure: In vitro diffusion experiments were performed using stainless steel flow-through diffusion cells, using human epidermis maintained at 32° C. The receptor solution consisted of 20% EtOH in Milli-Q water. Eight cells for each condition were treated with 100 mg of appropriate donor phase. Samples were collected at appropriate time points and analysed by high performance liquid chromatography (HPLC).

As to `O=C(O)CC(O)(CC(=O)O)C(=O)O` [citric acid], the “amount in the upper and middle regions of the stratum corneum (tape strips)” value in data set [1] is listed as “increase the amount”.

Consider `COC1=C(OC)C(=O)C(C/C=C(\C)CC/C=C(\C)CC/C=C(\C)CC/C=C(\C)CC/C=C(\C)CC/C=C(\C)CC/C=C(\C)CC/C=C(\C)CC/C=C(\C)CCC=C(C)C)=C(C)C1=O` [CoQ10, Coenzyme Q10], for which the “amount in the upper and middle regions of the stratum corneum (tape strips)” value in data set [1] is given as “increase the amount”.

For `O=c1c(-c2ccc(O)cc2)coc2cc(O)cc(O)c12` [genistein], in data set [2], the “increase of the cumulative amount across human epidermis compared with the control formulation” value worked out at 39%.
